Experimental data reported in US11053221B2, “Substituted pyrimidines for inhibiting embryonic leucine zipper kinase activity” (Arrien Pharmaceuticals LLC, priority 2018, dated 2021).

Assays:
MELK = target: T1, MELK (Homo sapiens, UniProt Q14680); assay: HotSpot kinase assay, MELK; format: biochemical; details: HotSpot radiometric 33P ATP assay, 25° C., 120 min
T1 construct: purchased Reaction Biology Corporation
Protocol: (§1) In vitro profiling of the MELK, MELK (T460M) kinase panel was performed at Reaction Biology Corporation using the “HotSpot” assay platform. In vitro profiling of the FLT3, FLT3 mutant forms; FLT3 (D835Y), FLT3 (F594R595insR), FLT3 (F594R595insREY), FLT3 (ITD), FLT3 (ITD)-NPOS, FLT3 (ITD)-W51 and FLT3 (R595_E596insEY) kinase panel is performed in the same manner.
(§2) Briefly, specific kinase/substrate pairs along with required cofactors were prepared in reaction buffer; 20 mM Hepes (pH 7.5), 10 mM MgCl2, 1 mM EGTA, 0.02% Brij35, 0.02 mg/mL BSA, 0.1 mM Na3VO4, 2 mM DTT, 1% DMSO. Compounds were delivered into the reaction, followed ˜20 min later by addition of a mixture of ATP (Sigma) and ^33P ATP (PerkinElmer) to a final concentration of […]. Reactions were carried out at 25° C. for 120 min, followed by spotting of the reactions onto P81 ion exchange filter paper (Whatman). Unbound phosphate was removed by extensive washing of filters in 0.75% phosphoric acid. […] IC50 values and curve fits were obtained using Prism (GraphPad Software).

FLT3 = target: T2, FLT3 (Homo sapiens, UniProt P36888); assay: HotSpot kinase assay, FLT3; format: biochemical; details: HotSpot radiometric 33P ATP assay, 25° C., 120 min
T2 construct: purchased Reaction Biology Corporation
T2 sequence (P36888 27-993): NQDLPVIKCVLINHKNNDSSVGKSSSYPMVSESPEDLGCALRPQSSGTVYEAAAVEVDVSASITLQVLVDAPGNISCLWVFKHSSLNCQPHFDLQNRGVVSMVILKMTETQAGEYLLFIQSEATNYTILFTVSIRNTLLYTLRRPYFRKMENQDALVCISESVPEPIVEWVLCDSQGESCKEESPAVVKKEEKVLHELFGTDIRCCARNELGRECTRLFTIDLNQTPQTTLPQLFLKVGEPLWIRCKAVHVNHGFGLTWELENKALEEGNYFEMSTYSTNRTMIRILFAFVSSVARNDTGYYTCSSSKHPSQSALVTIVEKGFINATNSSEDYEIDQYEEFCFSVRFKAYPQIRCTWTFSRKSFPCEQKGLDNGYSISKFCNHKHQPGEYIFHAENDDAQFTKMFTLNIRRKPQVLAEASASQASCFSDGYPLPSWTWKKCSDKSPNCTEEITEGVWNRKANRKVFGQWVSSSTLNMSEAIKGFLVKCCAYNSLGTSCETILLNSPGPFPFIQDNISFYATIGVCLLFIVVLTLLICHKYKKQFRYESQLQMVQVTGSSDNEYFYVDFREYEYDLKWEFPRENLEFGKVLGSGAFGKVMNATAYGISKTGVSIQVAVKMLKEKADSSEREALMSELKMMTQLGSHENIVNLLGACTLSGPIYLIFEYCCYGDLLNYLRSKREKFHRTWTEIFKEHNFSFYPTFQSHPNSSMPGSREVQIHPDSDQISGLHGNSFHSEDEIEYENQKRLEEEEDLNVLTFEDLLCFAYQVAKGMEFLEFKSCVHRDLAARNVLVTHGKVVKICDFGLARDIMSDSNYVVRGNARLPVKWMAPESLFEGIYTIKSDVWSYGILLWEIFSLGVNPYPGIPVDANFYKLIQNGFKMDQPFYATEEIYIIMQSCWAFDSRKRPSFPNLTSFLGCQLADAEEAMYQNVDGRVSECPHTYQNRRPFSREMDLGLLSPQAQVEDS
Protocol: as §1, §2

T1 sequence (Q14680 whole entry): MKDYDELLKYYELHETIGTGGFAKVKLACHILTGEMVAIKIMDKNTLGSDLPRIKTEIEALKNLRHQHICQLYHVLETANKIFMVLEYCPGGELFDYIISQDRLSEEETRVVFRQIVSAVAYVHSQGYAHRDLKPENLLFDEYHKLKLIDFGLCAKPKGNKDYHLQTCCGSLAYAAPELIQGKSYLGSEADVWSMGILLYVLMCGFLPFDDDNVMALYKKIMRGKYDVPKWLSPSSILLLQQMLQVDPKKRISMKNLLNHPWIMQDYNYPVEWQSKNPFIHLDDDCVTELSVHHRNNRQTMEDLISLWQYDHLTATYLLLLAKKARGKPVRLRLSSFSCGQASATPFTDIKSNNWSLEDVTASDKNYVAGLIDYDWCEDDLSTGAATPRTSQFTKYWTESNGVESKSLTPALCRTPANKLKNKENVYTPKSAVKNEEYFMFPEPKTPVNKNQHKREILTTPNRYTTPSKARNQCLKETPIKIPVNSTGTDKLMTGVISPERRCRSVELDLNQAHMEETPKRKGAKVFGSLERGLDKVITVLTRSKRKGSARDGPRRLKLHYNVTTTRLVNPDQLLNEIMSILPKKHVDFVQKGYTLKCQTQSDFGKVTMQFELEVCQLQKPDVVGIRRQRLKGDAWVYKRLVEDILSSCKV

Q: Which results are given for `N[C@H]1CC[C@@H](COc2cncnc2-c2cnn(-c3ccccc3F)c2)CC1` [Compound I-25, (1s,4s)-4-(((4-(1-(2-fluorophenyl)-1H-pyrazol-4-yl)pyrimidin-5-yl)oxy)methyl)cyclo-hexan-1-amine]?
A: IC50 (MELK): < 200 nM; IC50 (FLT3): < 200 nM

Q: `N[C@H]1CC[C@H](COc2cncnc2-c2cnn(-c3ccccc3F)c2)CC1` [Compound I-26, (1r,4r)-4-(((4-(1-(2-fluorophenyl)-1H-pyrazol-4-yl)pyrimidin-5-yl)oxy)methyl)cyclo-hexan-1-amine] was tested. Which IC50 (MELK) did it give?
A: < 200 nM

Q: What about the IC50 (FLT3) of the same compound?
A: < 200 nM

Q: `Fc1ccccc1-n1cc(-c2ncnc(Cl)c2OCC2CCNCC2)cn1` [Compound I-27, 4-chloro-6-(1-(2-fluorophenyl)-1H-pyrazol-4-yl)-5-(piperidin-4-ylmethoxy)pyrim-idine] was tested. Which IC50 (MELK) did it give?
A: 200 to 1000 nM

Q: And the IC50 (FLT3)?
A: < 200 nM

Q: Which IC50 (MELK) does the source give for `c1ccc(-n2cc(-c3ncncc3OCC3CCNCC3)cn2)cc1` [Compound I-28, 4-(1-phenyl-1H-pyrazol-4-yl)-5-(piperidin-4-ylmethoxy)pyrim-idine] here?
A: 200 to 1000 nM

Q: And the IC50 (FLT3)?
A: 200 to 1000 nM

Q: Which IC50 (MELK) does the source give for `Fc1cccc(F)c1-n1cc(-c2ncnc(Cl)c2OCC2CCNCC2)cn1` [Compound I-29, 4-chloro-6-(1-(2,6-difluorophenyl)-1H-pyrazol-4-yl)-5-(piperidin-4-ylmethoxy)pyrim-idine] here?
A: > 1000 nM

Q: What about the IC50 (FLT3) of the same compound?
A: 200 to 1000 nM

Q: Which results are given for `Fc1cccc(F)c1-n1cc(-c2ncncc2OCC2CCNCC2)cn1` [Compound I-30, 4-(1-(2,6-difluorophenyl)-1H-pyrazol-4-yl)-5-(piperidin-4-ylmethoxy)pyrim-idine]?
A: IC50 (MELK): 200 to 1000 nM; IC50 (FLT3): 200 to 1000 nM

Q: How did the IC50 (MELK) turn out when `OC1CCC(COc2cncnc2-c2cnn(-c3ccccc3F)c2)CC1` (stereo not shown) [Compound I-31, 4-(((4-(1-(2-fluorophenyl)-1H-pyrazol-4-yl)pyrimidin-5-yl)oxy)methyl)cyclo-hexan-1-ol] was run?
A: > 1000 nM

Q: And the IC50 (FLT3)?
A: 200 to 1000 nM

Q: What does the source list for `CN1CCN(c2ccc(-n3cc(-c4ncncc4OC[C@H]4CC[C@@H](N)CC4)cn3)cc2)CC1` [Compound I-32, (1s,4s)-4-(((4-(1-(4-(4-methylpiperazin-1-yl)phenyl)-1H-pyrazol-4-yl)pyrimidin-5-yl)oxy)methyl)cyclo-hexan-1-amine]?
A: IC50 (MELK): < 200 nM; IC50 (FLT3): < 200 nM

Q: Which results are given for `N[C@H]1CC[C@@H](COc2cncnc2-c2cnn(-c3ccc(N4CCOCC4)cc3)c2)CC1` [Compound I-33, (1s,4s)-4-(((4-(1-(4-morpholinophenyl)-1H-pyrazol-4-yl)pyrimidin-5-yl)oxy)methyl)cyclo-hexan-1-amine]?
A: IC50 (MELK): < 200 nM; IC50 (FLT3): < 200 nM

Q: How did the IC50 (MELK) turn out when `CCS(=O)(=O)c1ccc(-n2cc(-c3ncncc3OC[C@H]3CC[C@@H](N)CC3)cn2)cc1` [Compound I-34, (1s,4s)-4-(((4-(1-(4-(ethylsulfonyl)phenyl)-1H-pyrazol-4-yl)pyrimidin-5-yl)oxy)methyl)cyclo-hexan-1-amine] was run?
A: 200 to 1000 nM

Q: What about the IC50 (FLT3) of the same compound?
A: < 200 nM

Q: Which results are given for `CCS(=O)(=O)c1ccc(-n2cc(-c3ncncc3OC[C@H]3CC[C@@H](N)CC3)cn2)c(F)c1` [Compound I-35, (1s,4s)-4-(((4-(1-(4-(ethylsulfonyl)-2-fluorophenyl)-1H-pyrazol-4-yl)pyrimidin-5-yl)oxy)methyl)cyclo-hexan-1-amine]?
A: IC50 (MELK): 200 to 1000 nM; IC50 (FLT3): 200 to 1000 nM
